Experimental findings from patent US6949516B2, “Dipeptide apoptosis inhibitors and the use thereof” (Cytovia, Inc., priority 1997, dated 2005) are described below.

The subject of data set [1] is mouse liver apoptosis model. As to the kind of experiment: Mouse liver apoptosis model (antiFas-induced lethality). Particulars: mice. In kind it is in vivo. The procedure: The in vivo activity of the cell death inhibitors of the invention can be tested using the “mouse liver apoptosis” model described by Rodriguez et al. (Rodriguez et al., J. Exp. Med., 184:2067-2072 (1996)). In this model, mice are treated intravenously (IV) with an antiFas antibody which induces massive apoptosis in the liver and other organs, leading to generalized organ failure and death. This model is useful for indirectly testing the systemic bioavailability of the cell death inhibitors of the invention, as well as their in vivo anti-apoptotic properties. The cell death inhibitors of the invention therefore can be used to reduce or prevent apoptosis of liver cells (Jones et al. Hepatology 27: 1632-42 (1998)) such as in sepsis (Jaeschke et al. J. Immunol. 160: 3480-3486 (1998)) and hereditary tyrosinemia type 1 (HT1) (Kubo et al. Prov. Natl. Acad Sci. USA, 95: 9552-9557 (1998). The cell death inhibitors of the invention also can be used to treat hepatitis (Suzuki, Proc. Soc. Exp. Biol. Med. 217: 450-454 (1998)).
Three to four week old female mice were used in the studies. Liver degeneration was induced by intravenous injection with 2-6 μg of a purified hamster anti-mouse Fas monoclonal antibody (clone Jo2, Pharmingen) against mouse Fas antigen diluted in 80 μl of phosphate buffered physiological saline (Rodriguez, et al., 1996). Mortality was used as the end point to assess liver degeneration. Cbz-Val-Asp-CH2F was formulated in Tris buffer for intravenous infusion and tested at a dose of 1-10 mg/kg given IV via the tail vein. Ten minutes later, animals were injected with Fas antibody. Mortality was counted at 30 mins, 1, 3 and 24 h. For each compound there were groups of control animals that receive Fas antibody only.

The subject of data set [2] is DNA laddering in Jurkat cells. As to the kind of experiment: DNA laddering in antiFas-treated Jurkat cells. The class given is cell-based, human. Particulars: antiFas 100 ng/mL for 4 hours. The text has this: In the later stages of apoptosis, cells begin to literally fall apart as pieces of the cytoplasm are shed (through blebbing) and the nucleus is disassembled. One of the hallmarks of nuclear disassembly is the cleavage of genomic DNA into nucleosome-sized fragments (termed “DNA laddering”). DNA laddering, like other late stage apoptotic events, is considered to be irreversible, so it is important to determine whether an anti-apoptotic drug can prevent its occurrence.
The ability of Z-VD-fmk to block DNA laddering was tested using antiFas-treated Jurkat cells. Jurkat cells were plated in 60 mm dishes at a density of 5×10^6 cells and pre-incubated with varying concentrations of Z-VD-fmk. They were then challenged with antiFas at 100 ng/mL for 4 hours, harvested, and pelleted and washed with PBS twice. Genomic DNA was isolated using the method of Eldadah et al. (1996). Briefly, the cells were lysed in 2 mL of 7M guanidine HCl and mixed with 1 mL of Wizard miniprep DNA purification resin (Promega). The resin/DNA complex was washed twice with buffer and the DNA was eluted in TE. 1 to 2 μg of this DNA sample was electrophoresed on a 1% agarose/TBE gel and the gel was stained with ethidium bromide.
Vehicle treated cells which were challenged with antiFas show a characteristic laddering pattern of DNA extending down to about 300 bp. […]

Data set [3] concerns rat transient focal ischemia model. As to the kind of experiment: Rat transient focal ischemia model. The class given is in vivo. Particulars: for reduction of cortical infarction: p<0.05. The source says:
(i) Preparative Surgery: Male Fischer-344 rats (Harlan Sprague Dawley, Calif.) weighing 200-240 g, were used. Animals were initially anesthetized with 3% halothane in a mixture of 30% oxygen and 70% air. Halothane level were reduced to 1.5% for maintenance of anesthesia throughout surgery. […] (b) Arterial catheter implantation: the femoral artery were cannulated to allow monitoring of the blood pressure, and other physiological conditions include pO2, pCO2, pH, glucose, hematocrite, during ischemia, initial drug administration, and the time of arterial reperfusion. Both arterial and venous catheters were exteriorized through the back of the animal, to allow free movement. (c) A PhysioTel Transmitter (Data Sciences International, Mich.) were implanted into the peritoneal cavity to remotely monitor the body temperature of the animals for 22 hours.
(ii) Physiological parameters: Core body temperature was maintained at 37.5° C. during surgery, using a YSI Reusable Temperature Probe (YSI Co. Inc., Yellow Spring, Ohio) connected to a YSI Temperature Control Unit (Model 73A, YSI Co. Inc., Ohio) and a Electric Heating Pad (Model 756, Sunbean-Oster Co. Inc., Hattiesburg, Miss.). Following ischemia, the PhysioTel Transmitter was activated and core body temperature was recorded every 5 minutes. Systemic blood pressure was monitored throughout surgery, during intravenous drug infusion (bolus), and 1, 2, 3, and 4 hours after the onset of ischemia. Other physiological conditions, including pO2, pCO2, pH, glucose, and hematocrite were examined at the time of arterial occlusion and reperfusion.
(iii) Transient focal ischemia model: Following preparative surgery, a ventral midline cervical incision was made to expose both CCAs. The right CCA was permanently ligated with 4-o silk ligature, while the left CCA was clamped with an atraumatic aneurysm clip. A 1-cm incision perpendicular to and bisecting a line between the lateral canthus of the right eye and the external auditory canal was made. The underlying temporalis muscle was excised and retracted and under direct visualization with the aid of a dissecting microscope (Model SZ-STB1, Olympus, Japan), the middle cerebral artery (MCA) was exposed through a 2 mm burr hole drilled 2-3 mm rostral to the fusion of the zygomatic arch and the squamosal bone. Drilling was done under a continuous irrigation of physiological saline. The dura was cut and retracted to expose the MCA in the rhinal fissure. A Codman micro-aneurysm clip (No. 1) was used to temporarily occlude the MCA as it crosses the rhinal fissure. […] The areas of cortical and subcortical infarction were measured blindly with imaging processing software, and the volume of infarction was calculated by adding up individual measures with known thickness. […]

The structures appear in SMILES notation.

As for `CC(C)[C@H](NC(=O)OCc1ccccc1)C(=O)NC(CC(=O)O)C(=O)CF` (stereo partly drawn) [Cbz-Val-Asp-CH2F, Z-Val-Asp-fmk], the “induction of the liver enzymes SPGT and SGOT” value in data set [1] (antiFas, separate studies) is “attenuation”. The “protection from antiFas-induced lethality” value in data set [1] (single 1 mg/kg IV dose, up to 1 h after antibody administration) is on record as “completely protected”. This compound also showed a survival in data set [1] (up to 24 h after antiFas) of 28%. Moreover, the “dose inhibiting DNA ladder formation” value in data set [2] is reported as not above 50 nM. Besides, the “reduction of cortical infarction” value in data set [3] (Experiment 1: rat, 20 mg/kg IV bolus 10 minutes after onset of ischemia + 5 mg/kg/hr IV infusion for 6 h) stood at 46%; in data set [3] (Experiment 2: rat, 20 mg/kg IV bolus 10 minutes after onset of ischemia + 5 mg/kg/hr IV infusion for 12 h), 57%. Besides, the “tolerability following acute IV dosing” value in data set [3] (rat) is recorded as “well tolerated”. The “changes in blood pressure, blood gas, or temperature following drug administration” value in data set [3] (rat, 20 mg/kg IV bolus + 5 mg/kg/hr infusion) is “no changes”.
